Reference: US7135457B1, “Random peptides that bind to gastro-intestinal tract (GIT) transport receptors and related methods” (Cytogen Corporation, priority 1997, dated 2006)
Peptide text beside a SMILES is read from it. * marks the point of attachment. Dansyl = CN(C)c1cccc2c(S(=O)(=O)*)cccc12

System: P100 membrane fractions derived from Caco-2 cells
Assay: Dansylated peptide ELISA on P100: PAX2 and HAX42 peptides relative binding
Experimental: The peptides and proteins were analyzed by a dansylated peptide ELISA method in which 96 well plates were coated overnight at 4° C. with 100 μl/well coating protein (normally 100 μg/ml P100 membrane fraction) in 0.05M carbonate buffer pH9.6. Nonspecific binding was blocked using 200 μl/well, 2% Marvel/PBS for 2 hours at 37° C. prior to incubation with dansylated peptides. The plates were washed three times with PBS/0.05% Tween 20 and after each subsequent incubation step. […] A buffer blank control was included to ensure that background binding to plastic was not due to the antibodies used in the assay system. […] The plates were then incubated with an anti-mouse λ-HRP conjugated antibody (Southern Biotech 1060-05) at a 1:10,000 dilution in blocking solution, 100 μl/well for 1 hour at room temperature. Plates were developed using 75 μl/well Bionostics TMB substrate and incubated for approximately 10 minutes. The developing reaction was stopped using Bionostics Red Stop solution (25 μl/well), and the optical density of the plates was read at 650 nm.

[1] = PAX2 peptides, ratio to ZElan021 (HAX42 = 1.00), first 50 μg/ml column
[2] = PAX2 peptides, ratio to ZElan021 (HAX42 = 1.00), first 20 μg/ml column
[3] = PAX2 peptides, ratio to ZElan021 (HAX42 = 1.00), second 50 μg/ml column
[4] = PAX2 peptides, ratio to ZElan021 (HAX42 = 1.00), second 20 μg/ml column
[5] = HAX42 peptides, ratio to ZElan021 (arbitrary 1.00)
[6] = HAX42 peptides, ratio to ZElan021 (arbitrary 1.00), first 50 μg/ml column
[7] = HAX42 peptides, ratio to ZElan021 (arbitrary 1.00), second 50 μg/ml column

Row | Compound | Binding value at 50 μg/ml [1] | Binding value at 20 μg/ml [2] | Binding value at 50 μg/ml [3] | Binding value at 20 μg/ml [4] | Binding value at 20 μg/ml [5] | Binding value at 50 μg/ml [6] | Binding value at 50 μg/ml [7]
1 | CC(C)C[C@H](NC(=O)[C@H](CCCNC(=N)N)NC(=O)[C@H](CCCNC(=N)N)NC(=O)[C@H](CC(N)=O)NC(=O)[C@H](Cc1c[nH]cn1)NC(=O)[C@H](CO)NC(=O)[C@H](CO)NC(=O)[C@H](Cc1c[nH]cn1)NC(=O)[C@H](CCCCN)NC(=O)[C@H](C)NC(=O)[C@H](CC(N)=O)NC(=O)[C@@H](NC(=O)[C@@H](N)CCCCNS(=O)(=O)c1cccc2c(N(C)C)cccc12)[C@@H](C)O)C(=O)N[C@@H](CCCNC(=N)N)C(=O)N[C@H](C(=O)N[C@@H](CCCNC(=N)N)C(=O)N[C@@H](CO)C(=O)N[C@@H](CCCNC(=N)N)C(=O)N1CCC[C@H]1C(=O)N[C@@H](CC(N)=O)C(N)=O)[C@@H](C)O [ZElan032] (H-K(Dansyl)TNAKHSSHNRRLRTRSRPN-NH2) | 0.95 |  |  |  |  |  | 
2 | CC(C)C[C@H](NC(=O)[C@H](CCCNC(=N)N)NC(=O)[C@H](CCCNC(=N)N)NC(=O)[C@H](CC(N)=O)NC(=O)[C@H](Cc1c[nH]cn1)NC(=O)[C@H](CO)NC(=O)[C@H](CO)NC(=O)[C@H](Cc1c[nH]cn1)NC(=O)[C@H](CCCCN)NC(=O)[C@H](C)NC(=O)[C@H](CC(N)=O)NC(=O)[C@@H](NC(=O)[C@@H](N)CCCCNS(=O)(=O)c1cccc2c(N(C)C)cccc12)[C@@H](C)O)C(=O)N[C@@H](CCCNC(=N)N)C(=O)N[C@H](C(=O)N[C@@H](CCCNC(=N)N)C(N)=O)[C@@H](C)O [ZElan033] (H-K(Dansyl)TNAKHSSHNRRLRTR-NH2) | 0.80 | 0.35 | 0.66 |  |  |  | 
3 | CC(C)C[C@H](NC(=O)[C@H](CCCNC(=N)N)NC(=O)[C@H](CCCNC(=N)N)NC(=O)[C@H](CC(N)=O)NC(=O)[C@H](Cc1c[nH]cn1)NC(=O)[C@H](CO)NC(=O)[C@H](CO)NC(=O)[C@@H](N)CCCCNS(=O)(=O)c1cccc2c(N(C)C)cccc12)C(=O)N[C@@H](CCCNC(=N)N)C(=O)N[C@H](C(=O)N[C@@H](CCCNC(=N)N)C(N)=O)[C@@H](C)O [ZElan035] (H-K(Dansyl)SSHNRRLRTR-NH2) | 0.81 | 0.12 | 0.77 | 0.43 |  |  | 
4 | C[C@H](NC(=O)[C@H](CC(N)=O)NC(=O)[C@@H](NC(=O)[C@@H](N)CCCCNS(=O)(=O)c1cccc2c(N(C)C)cccc12)[C@@H](C)O)C(=O)N[C@@H](CCCCN)C(=O)N[C@@H](Cc1c[nH]cn1)C(=O)N[C@@H](CO)C(=O)N[C@@H](CO)C(=O)N[C@@H](Cc1c[nH]cn1)C(=O)N[C@@H](CC(N)=O)C(N)=O [ZElan055] (H-K(Dansyl)TNAKHSSHN-NH2) | 1.10 | 0.99 | 0.59 | 0.73 |  |  | 
5 | CC(C)C[C@H](NC(=O)[C@H](CCCNC(=N)N)NC(=O)[C@H](CCCNC(=N)N)NC(=O)[C@@H](N)CCCCNS(=O)(=O)c1cccc2c(N(C)C)cccc12)C(=O)N[C@@H](CCCNC(=N)N)C(=O)N[C@H](C(=O)N[C@@H](CCCNC(=N)N)C(=O)N[C@@H](CO)C(=O)N[C@@H](CCCNC(=N)N)C(=O)N1CCC[C@H]1C(=O)N[C@@H](CC(N)=O)C(N)=O)[C@@H](C)O [ZElan056] (H-K(Dansyl)RRLRTRSRPN-NH2) | 0.21 | 0.00 | 0.21 | 0.16 |  |  | 
6 | CC(C)C[C@H](NC(=O)[C@H](CCCNC(=N)N)NC(=O)[C@H](CCCNC(=N)N)NC(=O)[C@@H](N)CCCCNS(=O)(=O)c1cccc2c(N(C)C)cccc12)C(=O)N[C@@H](CCCNC(=N)N)C(=O)N[C@H](C(=O)N[C@@H](CCCNC(=N)N)C(=O)N[C@@H](CO)C(=O)N[C@@H](CCCNC(=N)N)C(N)=O)[C@@H](C)O [ZElan057] (H-K(Dansyl)RRLRTRSR-NH2) | 0.56 | 0.08 | 0.25 |  |  |  | 
7 | CC(C)C[C@H](NC(=O)[C@H](CCCNC(=N)N)NC(=O)[C@H](CCCNC(=N)N)NC(=O)[C@@H](N)CCCCNS(=O)(=O)c1cccc2c(N(C)C)cccc12)C(=O)N[C@@H](CCCNC(=N)N)C(=O)N[C@H](C(=O)N[C@@H](CCCNC(=N)N)C(N)=O)[C@@H](C)O [ZElan058, H2N-K(dns)RRLRTR-CONH2] (H-K(Dansyl)RRLRTR-NH2) | 0.47 | 0.05 | 0.16 |  |  |  | 
8 | CC(C)C[C@H](NC(=O)[C@H](C)NC(=O)[C@H](Cc1c[nH]cn1)NC(=O)[C@H](CC(=O)O)NC(=O)[C@H](CO)NC(=O)[C@@H](N)CCCCNS(=O)(=O)c1cccc2c(N(C)C)cccc12)C(=O)NCC(=O)N[C@H](C(=O)N[C@@H](CC(N)=O)C(=O)N[C@@H](CC(C)C)C(=O)N[C@@H](CCCNC(=N)N)C(=O)N[C@@H](CO)C(=O)N[C@@H](CC(=O)O)C(=O)N[C@@H](CC(N)=O)C(=O)N[C@@H](C)C(=O)N[C@@H](CCCCN)C(=O)N[C@@H](CCC(=O)O)C(=O)N1CCC[C@H]1C(=O)NCC(=O)N[C@@H](CC(=O)O)C(=O)N[C@@H](Cc1ccc(O)cc1)C(=O)N[C@@H](CC(N)=O)C(=O)N[C@@H](CS)C(=O)N[C@@H](CS)C(=O)NCC(=O)N[C@@H](CC(N)=O)C(=O)NCC(N)=O)[C@@H](C)O [ZElan060] (H-K(Dansyl)SDHALGTNLRSDNAKEPGDYNCCGNG-NH2) |  |  |  |  | 0.44 | 0.56 | 0.43
9 | CC[C@H](C)[C@H](NC(=O)[C@H](C)NC(=O)[C@H](CO)NC(=O)[C@@H]1CCCN1C(=O)[C@H](CCCNC(=N)N)NC(=O)[C@H](CCCNC(=N)N)NC(=O)[C@H](CCCNC(=N)N)NC(=O)[C@H](CC(N)=O)NC(=O)[C@H](Cc1ccccc1)NC(=O)[C@@H](NC(=O)[C@H](CCCCN)NC(=O)[C@H](CCCNC(=N)N)NC(=O)CNC(=O)[C@@H](NC(=O)[C@H](CO)NC(=O)[C@H](CC(N)=O)NC(=O)CNC(=O)[C@H](CC(N)=O)NC(=O)CNC(=O)[C@H](CS)NC(=O)[C@H](CS)NC(=O)[C@H](CC(N)=O)NC(=O)[C@H](Cc1ccc(O)cc1)NC(=O)[C@H](CC(=O)O)NC(=O)CNC(=O)[C@@H](N)CCCCNS(=O)(=O)c1cccc2c(N(C)C)cccc12)[C@@H](C)O)C(C)C)C(=O)N1CCC[C@H]1C(=O)N[C@H](C(N)=O)[C@@H](C)O [ZElan061] (H-K(Dansyl)GDYNCCGNGNSTGRKVFNRRRPSAIPT-NH2) |  |  |  |  | 0.20 | 0.60 | 0.38
10 | CC(C)C[C@H](NC(=O)[C@H](C)NC(=O)[C@H](Cc1c[nH]cn1)NC(=O)[C@H](CC(=O)O)NC(=O)[C@H](CO)NC(=O)[C@@H](N)CCCCNS(=O)(=O)c1cccc2c(N(C)C)cccc12)C(=O)NCC(=O)N[C@H](C(=O)N[C@@H](CC(N)=O)C(=O)N[C@@H](CC(C)C)C(=O)N[C@@H](CCCNC(=N)N)C(=O)N[C@@H](CO)C(=O)N[C@@H](CC(=O)O)C(=O)N[C@@H](CC(N)=O)C(=O)N[C@@H](C)C(=O)N[C@@H](CCCCN)C(=O)N[C@@H](CCC(=O)O)C(=O)N1CCC[C@H]1C(=O)NCC(N)=O)[C@@H](C)O [ZElan062] (H-K(Dansyl)SDHALGTNLRSDNAKEPG-NH2) |  |  |  |  | 0.11 | 0.42 | 0.34
11 | CC(C)[C@H](NC(=O)[C@H](CCCCN)NC(=O)[C@H](CCCNC(=N)N)NC(=O)[C@@H](N)CCCCNS(=O)(=O)c1cccc2c(N(C)C)cccc12)C(=O)N[C@@H](Cc1ccccc1)C(=O)N[C@@H](CC(N)=O)C(=O)N[C@@H](CCCNC(=N)N)C(=O)N[C@@H](CCCNC(=N)N)C(=O)N[C@@H](CCCNC(=N)N)C(=O)N1CCC[C@H]1C(=O)N[C@@H](CO)C(N)=O [ZElan065] (H-K(Dansyl)RKVFNRRRPS-NH2) |  |  |  |  | 0.00 | 0.54 | 0.30
12 | CN(C)c1cccc2c(S(=O)(=O)NCCCC[C@H](N)C(=O)N[C@@H](CC(N)=O)C(=O)N[C@@H](CCCNC(=N)N)C(=O)N[C@@H](CCCNC(=N)N)C(=O)N[C@@H](CCCNC(=N)N)C(=O)N3CCC[C@H]3C(=O)N[C@@H](CO)C(N)=O)cccc12 [ZElan067, H2N-K(dns)NRRRPS-CONH2] (H-K(Dansyl)NRRRPS-NH2) |  |  |  |  | 0.08 | 0.52 | 0.40
13 | CC(C)C[C@H](NC(=O)[C@H](C)NC(=O)[C@H](Cc1c[nH]cn1)NC(=O)[C@H](CC(=O)O)NC(=O)[C@H](CO)NC(=O)[C@@H](N)CCCCNS(=O)(=O)c1cccc2c(N(C)C)cccc12)C(=O)NCC(=O)N[C@H](C(=O)N[C@@H](CC(N)=O)C(=O)N[C@@H](CC(C)C)C(=O)N[C@@H](CCCNC(=N)N)C(=O)N[C@@H](CO)C(=O)N[C@@H](CC(=O)O)C(=O)N[C@@H](CC(N)=O)C(=O)N[C@@H](C)C(=O)N[C@@H](CCCCN)C(=O)N[C@@H](CCC(=O)O)C(=O)N1CCC[C@H]1C(=O)NCC(=O)N[C@@H](CC(=O)O)C(=O)N[C@@H](Cc1ccc(O)cc1)C(=O)N[C@@H](CC(N)=O)C(=O)N[C@@H](CS)C(=O)N[C@@H](CS)C(=O)NCC(=O)N[C@@H](CC(N)=O)C(=O)NCC(=O)N[C@@H](CC(N)=O)C(=O)N[C@@H](CO)C(=O)N[C@H](C(N)=O)[C@@H](C)O)[C@@H](C)O [ZElan070] (H-K(Dansyl)SDHALGTNLRSDNAKEPGDYNCCGNGNST-NH2) |  |  |  |  | 0.59 | 0.97 | 0.39
